Data set [1] deals with Canis familiaris. The data set can be described thus: Tested for the diuretic activity by measuring the urinary volume after intravenous administering 9.09 uM/Kg of drug in dogs. Type of data set: ADME, organism-based, Canis lupus familiaris, Urine. Particulars: dog, in vivo.
Data set [2] relates to Canis familiaris. The data set can be described thus: Tested for the diuretic activity by measuring the urinary volume after peroral administering 34.1 uM/Kg of drug in dogs. Particulars: dog, in vivo, po.
In data set [3] the test system is Canis familiaris. The data set can be described thus: Total electrolytic excretion of potassium in urine of dogs after intravenous administration of 9.09 uM/Kg of drug. Type of data set: ADME, organism-based, Canis lupus familiaris. Particulars: dog, in vivo.
The subject of data set [4] is Canis familiaris. The data set can be described thus: Total electrolytic excretion of sodium in urine of dogs after intravenous administration of 3.03 uM/Kg of drug. Particulars: dog, in vivo. Type of data set: ADME, organism-based, Canis lupus familiaris.
Data set [5] relates to Canis familiaris. The data set can be described thus: Total electrolytic excretion of chlorine in urine of dogs after intravenous administration of 3.03 uM/Kg of drug. It counts as ADME, organism-based, Canis lupus familiaris. Particulars: dog, in vivo.
For data set [6], the system named is Canis familiaris. Put plainly: Total electrolytic excretion of sodium in urine of dogs after intravenous administration of 34.1 uM/Kg of drug. It counts as ADME, organism-based, Canis lupus familiaris. Particulars: dog, in vivo.
Data set [7] relates to Rattus norvegicus. The data set can be described thus: Total electrolytic excretion of potassium in urine of rats after peroral administration of 68.1 uM/Kg of drug. Type of data set: ADME, organism-based. Particulars: in vivo, po.
The subject of data set [8] is Rattus norvegicus. The data set can be described thus: Total electrolytic excretion of chlorine in urine of rats after peroral administration of 341 uM/Kg of drug. It counts as ADME, organism-based. Particulars: in vivo, po.
The test system of data set [9] is Canis familiaris. Put plainly: Tested for the diuretic activity by measuring the urinary volume after intravenous administering 30.3 uM/Kg of drug in dogs. Type of data set: ADME, organism-based, Canis lupus familiaris, Urine. Particulars: dog, in vivo.
The species named for data set [10] is Canis familiaris. Put plainly: Tissue vascular resistance of left ventricle was measured in Beagle dogs before treatment after giving the dose of MNX plus the drug. Type of data set: functional, Canis lupus familiaris, Heart left ventricle.
Data set [11] is filed under the species Canis familiaris. The data set can be described thus: Tissue vascular resistance of pancreas was measured in Beagle dogs before treatment. It counts as functional, Canis lupus familiaris.
Data set [12] relates to Canis familiaris. The data set can be described thus: Total electrolytic excretion of potassium in urine of dogs after intravenous administration of 30.3 uM/Kg of drug. Type of data set: ADME, organism-based, Canis lupus familiaris. Particulars: dog, in vivo.
The species named for data set [13] is Canis familiaris. Put plainly: Systemic cardio vascular Hemodynamics of total peripheral resistance was measured in Beagle dogs after giving the dose of MNX. It counts as functional, Canis lupus familiaris, Heart.
Data set [14] has as its system Canis familiaris. The data set can be described thus: Total electrolytic excretion of sodium in urine of dogs after intravenous administration of 30.3 uM/Kg of drug. It counts as ADME, organism-based, Canis lupus familiaris. Particulars: dog, in vivo.
The species named for data set [15] is Canis familiaris. The data set can be described thus: Tissue vascular resistance of large intestine was measured in Beagle dogs after giving the dose of MNX plus the drug. It counts as functional, Canis lupus familiaris.
The species entered for data set [16] is Canis familiaris. The data set can be described thus: Tissue vascular resistance of left ventricle was measured in Beagle dogs after giving the dose of MNX. Type of data set: functional, Canis lupus familiaris, Heart left ventricle.
The species named for data set [17] is Canis familiaris. Put plainly: Tissue vascular resistance of large intestine was measured in Beagle dogs before treatment. Type of data set: functional, Canis lupus familiaris.
The species entered for data set [18] is Canis familiaris. Put plainly: Systemic cardio vascular Hemodynamics of total peripheral resistance was measured in Beagle dogs after giving the dose of MNX plus the drug. Type of data set: functional, Canis lupus familiaris, Heart.
Data set [19] relates to Rattus norvegicus. The data set can be described thus: Total electrolytic excretion of potassium in urine of rats after peroral administration of 50.8 uM/Kg of drug. It counts as ADME, organism-based. Particulars: in vivo, po.
Data set [20] concerns Rattus norvegicus. The data set can be described thus: Total electrolytic excretion of sodium in urine of rats after peroral administration of 341 uM/Kg of drug. Particulars: in vivo, po. It counts as ADME, organism-based.

Here are results for one molecule from ChEMBL document CHEMBL1127385, “Synthesis and diuretic activity of alkyl- and arylguanidine analogs of N,N'-dicyclohexyl-4-morpholinecarboxamidine in rats and dogs” (J Med Chem, 1994).

With `C1CCC(N=C(NC2CCCCC2)N2CCOCC2)CC1`, the figures for the V in the data set with Canis familiaris [1], in the data set on Canis familiaris [2] and in the data set on Canis familiaris [9] were 87 mL, 81 mL and 114 mL, respectively. The “Excretion K+” value is listed as 1.7 m equiv in the data set on Canis familiaris [3], 2 m equiv in the data set on Rattus norvegicus [7], 1.6 m equiv in the data set with Canis familiaris [12] and 1.9 m equiv in the data set with Rattus norvegicus [19]. Further, the “Excretion Na+” value amounted to 8.1 m equiv in the data set with Canis familiaris [4], 18.6 m equiv in the data set on Canis familiaris [6], 13.1 m equiv with Canis familiaris [14] and 1.73 m equiv with Rattus norvegicus [20]. The “Excretion Cl-” value with Canis familiaris [5] amounted to 5.4 m equiv; in the data set on Rattus norvegicus [8] it was 1.64 m equiv. For the same molecule, the TVR stood at 100 mmHg·min·g/mL in the data set filed under Canis familiaris [10]; 118 mmHg·min·g/mL in the data set filed under Canis familiaris [11]; 340 mmHg·min·g/mL in the data set listed under Canis familiaris [15]; 10 mmHg·min·g/mL in the data set filed under Canis familiaris [16]; 264 mmHg·min·g/mL in the data set filed under Canis familiaris [17]. Moreover, the TPR in the data set filed under Canis familiaris [13] came to 0.3 mmHg·min·kg/mL; in the data set listed under Canis familiaris [18], 0.91 mmHg·min·kg/mL.
